The conditions of data set [1]: 298.15 K; 101 kPa; Liquid; Vibrating tube method.
The nature of data set [2]: refractive index (Na D-line) (dimensionless). The conditions noted are these: 298.15 K; 101 kPa; Liquid; Standard Abbe refractometry.

Numbers after ± are expanded uncertainties.

For orientation: mass density means mass per unit of volume. As a reminder, the refractive index is a measure of how strongly the sample bends light.

Turning to `CCCC[N+](C)(C)C.O=S(=O)([N-]S(=O)(=O)C(F)(F)F)C(F)(F)F` [butyltrimethylammonium bis(trifluoromethylsulfonyl)imide], in data set [1], the mass density was 1393 ± 0.2 kg/m3. In data set [2], the refractive index is listed as 1.40806 ± 0.00031.
As for `CCO` [ethanol], the mass density in data set [1] amounted to 785.9 ± 0.2 kg/m3. In addition, the refractive index in data set [2] is given as 1.35936 ± 0.00037.
With `CCCCCCC` [heptane], in data set [1], the mass density is listed as 679.6 ± 0.3 kg/m3. In addition, the refractive index in data set [2] is recorded as 1.38529 ± 0.00037.
In the same order, the values of `CCCCCC` [hexane] are 655.2 ± 0.3 kg/m3 and 1.37241 ± 0.00037.
Take `CO` [methanol]: the mass density in data set [1] is given as 786.9 ± 0.2 kg/m3. Moreover, the refractive index in data set [2] is listed as 1.32636 ± 0.00037.
In the same order, the values of `CCCC[N+](C)(CCCC)CCCC.O=S(=O)([N-]S(=O)(=O)C(F)(F)F)C(F)(F)F` [tributylmethylammonium bis((trifluoromethyl)sulfonyl)imide] are 1261.3 ± 0.2 kg/m3 and 1.42614 ± 0.00032.

(Values after the NIST ThermoML archive (doi:10.1016/j.jct.2013.08.023).)
